Assay results taken from ChEMBL document CHEMBL4673390, “Discovery of Aminopyrazole Derivatives as Potent Inhibitors of Wild-Type and Gatekeeper Mutant FGFR2 and 3” (ACS Med Chem Lett, 2021).

Assays:
[1] = in vitro; conditions: human, Caco-2
[2] = in vitro; conditions: human, blood
[3] = in vitro; conditions: mouse, blood
[4] = in vivo; conditions: CD-1, mouse, po, 10 mg/kg
[5] = in vivo; conditions: CD-1, mouse, po, 10 mg/kg; remark: listed apart in the source
[6] = in vivo; conditions: CD-1, mouse, po, 10 mg/kg; remark: listed apart in the source
[7] = in vivo; conditions: CD-1, mouse, iv, 5 mg/kg
[8] = in vivo; conditions: CD-1, mouse, iv, 5 mg/kg; remark: listed apart in the source

| AUC at 24 h [4] [ng·h/mL] | bioavailability at 24 h [5] [%] | Cmax at 24 h [6] [ng/mL] | Vd at 24 h [7] [L/kg] | clearance at 24 h [8] [mL/min/kg] | SMILES | Papp A→B at 2 h [1] [×10⁻⁶ cm/s] | half-life at 2 h, 2 µM [2] [h] | half-life at 2 h, 2 µM [3] [h] |
| --- | --- | --- | --- | --- | --- | --- | --- | --- |
| – | – | – | – | – | C=CC(=O)N1CCC2(CCN(c3nc(Nc4cc(C(C)C)[nH]n4)cc(N4CCN(C)CC4)n3)CC2)C1 | 0.2 | 3.03 | 2.73 |
| 400 | 21 | 103 | 3.1 | 86.3 | C=CC(=O)Nc1ccc(/C=C/c2nc(Nc3cc(C(C)C)[nH]n3)cc(N3CCN(C)CC3)n2)cc1 | 0.1 | 2.02 | 1.9 |
| – | – | – | – | – | C=CC(=O)Nc1ccc(CCc2nc(Nc3cc(C)[nH]n3)cc(N3CCN(C)CC3)n2)cc1 | 0.3 | 4.12 | 2.62 |
